# According to US20150051176A1, “ARYL DERIVATIVES AS SPHINGOSINE-1 PHOSPHATE RECEPTORS MODULATORS” (Allergan, Inc., priority 2013, published 2015):
# Target: T1, human S1P1 receptor (Homo sapiens, UniProt P21453)
# T1 construct: expressed in transfected cells; membranes used
# Assay: GTP γ35S binding assay for S1P1 activity
# Type: biochemical
# Conditions: membranes of cells stably expressing the S1P1 receptor, test concentrations 0.08 to 5,000 nM
# Procedure: Compounds were synthesized and tested for S1P1 activity using the GTP γ^35S binding assay. These compounds may be assessed for their ability to activate or block activation of the human S1P1 receptor in cells stably expressing the S1P1 receptor.
# GTP γ^35S binding was measured in the medium containing (mM) HEPES 25, pH 7.4, MgCl2 10, NaCl 100, dithiothreitol 0.5, digitonin 0.003%, 0.2 nM GTP γ^35S, and 5 μg membrane protein in a volume of 150 μl. Test compounds were included in the concentration range from 0.08 to 5,000 nM unless indicated otherwise. Membranes were incubated with 100 μM 5′-adenylylimidodiphosphate for 30 min, and subsequently with 10 μM GDP for 10 min on ice. Drug solutions and membrane were mixed, and then reactions were initiated by adding GTP γ^35S and continued for 30 min at 25° C. Reaction mixtures were filtered over Whatman GF/B filters under vacuum, and washed three times with 3 mL of ice-cold buffer (HEPES 25, pH7.4, MgCl2 10 and NaCl 100). Filters were dried and mixed with scintillant, and counted for ^35S activity using a β-counter. Agonist-induced GTP γ^35S binding was obtained by subtracting that in the absence of agonist. Binding data were analyzed using a non-linear regression method. In case of antagonist assay, the reaction mixture contained 10 nM […] in the presence of test antagonist at concentrations ranging from 0.08 to 5000 nM.
# T1 sequence (P21453 whole entry): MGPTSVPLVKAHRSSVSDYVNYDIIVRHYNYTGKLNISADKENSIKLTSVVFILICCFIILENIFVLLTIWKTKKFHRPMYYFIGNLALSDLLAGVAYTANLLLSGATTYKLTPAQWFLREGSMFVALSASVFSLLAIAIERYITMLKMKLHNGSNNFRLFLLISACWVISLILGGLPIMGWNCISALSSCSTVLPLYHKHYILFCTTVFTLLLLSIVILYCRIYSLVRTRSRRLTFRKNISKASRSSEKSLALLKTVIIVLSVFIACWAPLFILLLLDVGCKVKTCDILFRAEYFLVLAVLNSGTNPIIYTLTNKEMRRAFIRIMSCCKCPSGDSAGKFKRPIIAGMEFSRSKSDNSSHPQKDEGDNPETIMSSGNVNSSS
row,Structure (SMILES),EC50 [nM]
1,O=C(O)CCNCCCCCCCCC(Cc1ccccc1)c1cccc(Cl)c1 (centres unmarked) [3-{[9-(3-Chlorophenyl)-10-phenyldecyl]amino}propanoic acid],21.8
2,"Cc1ccc(CC(CCCCCCCNCCC(=O)O)c2cccc(Cl)c2)cc1C (centres unmarked) [3-{[8-(3-Chlorophenyl)-9-(3,4-dimethylphenyl)nonyl]amino}propanoic acid]",487
3,"Cc1ccc(CC(CCCCCCCCNCCCP(=O)(O)O)c2cccc(Cl)c2)cc1C (centres unmarked) [(3-{[9-(3-Chlorophenyl)-10-(3,4-dimethylphenyl)decyl]amino}propyl)phosphonic acid]",293
4,"Cc1ccc(CC(CCCCCCCNCCC(=O)O)c2cc(F)cc(F)c2)cc1C (centres unmarked) [3-{[8-(3,5-Difluorophenyl)-9-(3,4-dimethylphenyl)nonyl]amino}propanoic acid]",45.4
5,"Cc1ccc(CC(CCCCCCCNCCCP(=O)(O)O)c2cccc(Cl)c2)cc1C (centres unmarked) [3-{[8-(3-chlorophenyl)-9-(3,4-dimethylphenyl)nonyl]amino}propylphosphonic acid]",8.18
6,O=P(O)(O)CCCNCCCCCCCCC(Cc1ccccc1)c1cccc(Cl)c1 (centres unmarked) [(3-{[9-(3-Chlorophenyl)-10-phenyldecyl]amino}propyl)phosphonic acid],2.13
7,"Cc1ccc(CC(CCCCCCCNCCCP(=O)(O)O)c2cc(F)cc(F)c2)cc1C (centres unmarked) [(3-{[8-(3,5-Difluorophenyl)-9-(3,4-dimethylphenyl)nonyl]amino}propyl)phosphonic acid]",3.03
8,"Cc1ccc(CC(CCCCCCNCCCP(=O)(O)O)c2cccc(Cl)c2)cc1C (centres unmarked) [3-{[7-(3-Chlorophenyl)-8-(3,4-dimethylphenyl)octyl]amino}propyl)phosphonic acid]",169
